We go through ten molecules from US8084649B2, “Herbicides” (Syngenta Crop Protection, inc., priority 2007, dated 2011).

What all share (assay type): in vivo
In assay [1] the test system is Avena fatua (AVEFA). Nature of the assay: Post-emergence herbicidal activity, glasshouse pot test. The conditions noted are these: Avena fatua, rate 125 g/ha, evaluated after 14 or 15 days, read-out: Post-emergence activity, AVEFA (100=total damage to plant; 0=no damage to plant). How it is done: (§1) Monocotyledonous and dicotyledonous test plants were sown in sterilised standard soil in pots. After cultivation for one day (pre-emergence) or after 10 days cultivation (post-emergence) under controlled conditions in a glasshouse, the plants were sprayed with an aqueous spray solution derived from the formulation of the technical active ingredient in 0.6 ml acetone and 45 ml formulation solution containing 10.6% Emulsogen EL (Registry number 61791-12-6), 42.2% N-methylpyrrolidone, 42.2% dipropylene glycol monomethyl ether (Registry number 34590-94-8) and 0.2% X-77 (Registry number 11097-66-8). The test plants were then grown in a greenhouse under optimum conditions until, 14 or 15 days later for post-emergence and 20 days for pre-emergence, the test was evaluated (100=total damage to plant; 0=no damage to plant). Alopecurus myosuroides (ALOMY), Avena fatua (AVEFA), Lolium perenne (LOLPE), Setaria faberi (SETFA), Digitaria sanguinalis (DIGSA), Echinochloa crus-galli (ECHCG) Post-Emergence Activity

Assay [2] has as its system Lolium perenne (LOLPE). Described as above. The note with it: Lolium perenne, rate 125 g/ha, evaluated after 14 or 15 days, read-out: Post-emergence activity, LOLPE (100=total damage to plant; 0=no damage to plant). The method, then:
as §1

In assay [3] the test system is Alopecurus myosuroides (ALOMY). Described as above. The conditions noted are these: Alopecurus myosuroides, rate 125 g/ha, evaluated after 14 or 15 days, read-out: Post-emergence activity, ALOMY (100=total damage to plant; 0=no damage to plant). The method, then:
as §1

Assay [4] relates to Setaria faberi (SETFA). The description is as above. The note with it: Setaria faberi, rate 125 g/ha, evaluated after 14 or 15 days, read-out: Post-emergence activity, SETFA (100=total damage to plant; 0=no damage to plant). How it is done: as §1
Assay [5] relates to Digitaria sanguinalis (DIGSA). The assay is described as above. The note with it: Digitaria sanguinalis, rate 125 g/ha, evaluated after 14 or 15 days, read-out: Post-emergence activity, DIGSA (100=total damage to plant; 0=no damage to plant). How it is done: as §1
Assay [6] relates to Echinochloa crus-galli (ECHCG). Kind of assay: Pre-emergence herbicidal activity, glasshouse pot test. The conditions noted are these: Echinochloa crus-galli, 480 h, rate 500 g/ha, evaluated after 20 days, read-out: Pre-emergence activity, ECHCG (100=total damage to plant; 0=no damage to plant). The method, then: as §1, with “Pre-Emergence” for “Post-Emergence”
The subject of assay [7] is Avena fatua (AVEFA). Described as above. The conditions noted are these: Avena fatua, 480 h, rate 500 g/ha, evaluated after 20 days, read-out: Pre-emergence activity, AVEFA (100=total damage to plant; 0=no damage to plant). The method, then: as §1, with “Pre-Emergence” for “Post-Emergence”
Assay [8] concerns Lolium perenne (LOLPE). The description is as above. The note with it: Lolium perenne, 480 h, rate 500 g/ha, evaluated after 20 days, read-out: Pre-emergence activity, LOLPE (100=total damage to plant; 0=no damage to plant). The method, then: as §1, with “Pre-Emergence” for “Post-Emergence”
In assay [9] the test system is Alopecurus myosuroides (ALOMY). The assay is described as above. The note with it: Alopecurus myosuroides, 480 h, rate 500 g/ha, evaluated after 20 days, read-out: Pre-emergence activity, ALOMY (100=total damage to plant; 0=no damage to plant). The method, then:
as §1, with “Pre-Emergence” for “Post-Emergence”

Assay [10] deals with Setaria faberi (SETFA). The assay is described as above. The note with it: Setaria faberi, 480 h, rate 500 g/ha, evaluated after 20 days, read-out: Pre-emergence activity, SETFA (100=total damage to plant; 0=no damage to plant). How it is done:
as §1, with “Pre-Emergence” for “Post-Emergence”

For assay [11], the system named is Digitaria sanguinalis (DIGSA). Described as above. The conditions noted are these: Digitaria sanguinalis, 480 h, rate 500 g/ha, evaluated after 20 days, read-out: Pre-emergence activity, DIGSA (100=total damage to plant; 0=no damage to plant). The method, then: as §1, with “Pre-Emergence” for “Post-Emergence”
In assay [12] the test system is Echinochloa crus-galli (ECHCG). Kind of assay: Post-emergence herbicidal activity, glasshouse pot test. The note with it: Echinochloa crus-galli, rate 125 g/ha, evaluated after 14 or 15 days, read-out: Post-emergence activity, ECHCG (100=total damage to plant; 0=no damage to plant). The method, then:
as §1

Structures are written as SMILES.

Take `CCC(=O)OC1=C(c2c(CC)cc(C)cc2CC)C(=O)CC2(CCOCC2)C1` [Compound P2]: the pest or weed control at 125 g/ha was 90% in the assay with Avena fatua (AVEFA) [1]; 80% in the assay with Lolium perenne (LOLPE) [2]; 80% in assay [3]; 70% in the assay with Setaria faberi (SETFA) [4]; 100% in assay [5]. The pest or weed control at 500 g/ha (in assay [6]; in the assay with Avena fatua (AVEFA) [7]; with Lolium perenne (LOLPE) [8]; in assay [9]; in the assay on Setaria faberi (SETFA) [10]; in assay [11]) was 100% each time.

`CCc1cc(C)cc(CC)c1C1=C(OC(=O)CC(C)(C)C)CC2(CCOCC2)CC1=O` [Compound P6]: the pest or weed control at 125 g/ha amounted to 80% with Avena fatua (AVEFA) [1]; 10% in the assay on Lolium perenne (LOLPE) [2]; 60% in assay [3]; 0% in the assay with Setaria faberi (SETFA) [4]; 30% in [5]. For the same molecule, the pest or weed control at 500 g/ha in assay [6] is 70%; with Avena fatua (AVEFA) [7], 90%; in the assay on Lolium perenne (LOLPE) [8] it was 100%; in [9], 100%; in the assay with Setaria faberi (SETFA) [10] it was 70%; in assay [11], 100%.

With `CCCCCCC(=O)OC1=C(c2c(CC)cc(C)cc2CC)C(=O)CC2(CCOCC2)C1` [Compound P10], the pest or weed control at 125 g/ha amounted to 100% in the assay with Avena fatua (AVEFA) [1]; 90% with Lolium perenne (LOLPE) [2]; 100% in assay [3]; 70% in the assay on Setaria faberi (SETFA) [4]; 80% in assay [5]. Also, the pest or weed control at 500 g/ha (in assay [6]; in the assay on Avena fatua (AVEFA) [7]; in the assay on Lolium perenne (LOLPE) [8]; in [9]; in the assay on Setaria faberi (SETFA) [10]; in [11]) was 100% in each case.

For `CCCC(CC)C(=O)OC1=C(c2c(CC)cc(C)cc2CC)C(=O)CC2(CCOCC2)C1` (centres unmarked) [Compound P15], the pest or weed control at 125 g/ha worked out at 70% in the assay on Avena fatua (AVEFA) [1]; 0% in the assay with Lolium perenne (LOLPE) [2]; 10% in [3]; 40% in the assay on Setaria faberi (SETFA) [4]; 70% in assay [5]. The pest or weed control at 500 g/ha in assay [6] is 60%; in the assay on Avena fatua (AVEFA) [7] it was 90%; in the assay with Lolium perenne (LOLPE) [8], 100%; in assay [9], 0%; with Setaria faberi (SETFA) [10], 70%; in assay [11] it was 90%.

Regarding `CCc1cc(C)cc(CC)c1C1=C(OS(=O)(=O)CC)CC2(CCOCC2)CC1=O` [Compound P28], the pest or weed control at 125 g/ha in the assay on Avena fatua (AVEFA) [1] was found to be 10%; in the assay with Lolium perenne (LOLPE) [2] it was 0%; in assay [3], 0%; with Setaria faberi (SETFA) [4], 0%; in [5] it was 10%. Besides, the pest or weed control at 500 g/ha in assay [6] is 10%; in the assay on Avena fatua (AVEFA) [7], 30%; in the assay on Lolium perenne (LOLPE) [8] it was 80%; in [9], 80%; with Setaria faberi (SETFA) [10] it was 70%; in assay [11], 70%.

`C#CCOC1=C(c2c(CC)cc(C)cc2CC)C(=O)CC2(CCOCC2)C1` [Compound P31, 9-(2,6-diethyl-4-methylphenyl)-10-prop-2-ynyloxy-3-oxaspiro[5.5]undec-9-en-8-one]: the pest or weed control at 125 g/ha was 70% with Avena fatua (AVEFA) [1]; 50% in the assay with Lolium perenne (LOLPE) [2]; 70% in assay [3]; 60% in the assay on Setaria faberi (SETFA) [4]; 20% in [5]. The pest or weed control at 500 g/ha in assay [6] came out at 100%; in the assay on Avena fatua (AVEFA) [7], 100%; in the assay with Lolium perenne (LOLPE) [8], 100%; in assay [9] it was 100%; in the assay on Setaria faberi (SETFA) [10], 90%; in assay [11], 100%.

For the molecule `CCOCOC1=C(c2c(CC)cc(C)cc2CC)C(=O)CC2(CCOCC2)C1` [Compound P35], the pest or weed control at 125 g/ha in [12] was 100%; with Avena fatua (AVEFA) [1], 100%; with Lolium perenne (LOLPE) [2], 90%; in [3], 100%; in the assay with Setaria faberi (SETFA) [4], 50%; in [5], 50%. Also, the pest or weed control at 500 g/ha (with Avena fatua (AVEFA) [7]; with Lolium perenne (LOLPE) [8]; in assay [9]; in the assay with Setaria faberi (SETFA) [10]) was 100% each time.

Consider `CCCOC1=C(c2c(CC)cc(C)cc2CC)C(=O)CC2(CCOCC2)C1` [Compound P41], for which the pest or weed control at 125 g/ha in the assay with Avena fatua (AVEFA) [1] stood at 10%; in the assay on Lolium perenne (LOLPE) [2], 0%; in [3], 10%; with Setaria faberi (SETFA) [4] it was 0%; in assay [5], 50%. Besides, the pest or weed control at 500 g/ha in [6] was determined as 40%; with Avena fatua (AVEFA) [7], 10%; in the assay with Lolium perenne (LOLPE) [8] it was 0%; in [9] it was 70%; in the assay on Setaria faberi (SETFA) [10], 10%; in assay [11], 90%.

As to `CCCCCCCCCCCCCC(=O)OC1=C(c2c(CC)cc(C)cc2CC)C(=O)CC2(CCOCC2)C1` [Compound P42], the pest or weed control at 125 g/ha in assay [12] amounted to 30%; in the assay with Avena fatua (AVEFA) [1], 40%; in the assay on Lolium perenne (LOLPE) [2], 50%; in assay [3], 60%; in the assay on Setaria faberi (SETFA) [4] it was 50%; in assay [5], 30%. The pest or weed control at 500 g/ha amounted to 100% in assay [6], 90% in the assay with Avena fatua (AVEFA) [7], 100% with Lolium perenne (LOLPE) [8] and 100% in assay [9].

On to `CCCCCCCCCC(=O)OC1=C(c2c(CC)cc(C)cc2CC)C(=O)CC2(CCOCC2)C1` [Compound P43], for which the pest or weed control at 125 g/ha in assay [12] is 70%; with Avena fatua (AVEFA) [1], 100%; with Lolium perenne (LOLPE) [2], 80%; in [3] it was 100%; with Setaria faberi (SETFA) [4], 70%; in [5], 70%. The pest or weed control at 500 g/ha (in assay [6]; with Avena fatua (AVEFA) [7]; with Lolium perenne (LOLPE) [8]; in assay [9]) was 100% in each case.
